Assay results reported in patent publication US11396522B2, “Bis-acetal-based substrates for imaging exo-glycosidase activity” (ALECTOS THERAPEUTICS INC., priority 2017, dated 2022).

Columns and labels:
GBA2 = target: T1, GBA2 (Homo sapiens, UniProt Q9HCG7); assay: In vitro kinetic assay with GBA2; format: biochemical; conditions: GBA enzymes at 50 nM
T1 sequence (Q9HCG7 1-927): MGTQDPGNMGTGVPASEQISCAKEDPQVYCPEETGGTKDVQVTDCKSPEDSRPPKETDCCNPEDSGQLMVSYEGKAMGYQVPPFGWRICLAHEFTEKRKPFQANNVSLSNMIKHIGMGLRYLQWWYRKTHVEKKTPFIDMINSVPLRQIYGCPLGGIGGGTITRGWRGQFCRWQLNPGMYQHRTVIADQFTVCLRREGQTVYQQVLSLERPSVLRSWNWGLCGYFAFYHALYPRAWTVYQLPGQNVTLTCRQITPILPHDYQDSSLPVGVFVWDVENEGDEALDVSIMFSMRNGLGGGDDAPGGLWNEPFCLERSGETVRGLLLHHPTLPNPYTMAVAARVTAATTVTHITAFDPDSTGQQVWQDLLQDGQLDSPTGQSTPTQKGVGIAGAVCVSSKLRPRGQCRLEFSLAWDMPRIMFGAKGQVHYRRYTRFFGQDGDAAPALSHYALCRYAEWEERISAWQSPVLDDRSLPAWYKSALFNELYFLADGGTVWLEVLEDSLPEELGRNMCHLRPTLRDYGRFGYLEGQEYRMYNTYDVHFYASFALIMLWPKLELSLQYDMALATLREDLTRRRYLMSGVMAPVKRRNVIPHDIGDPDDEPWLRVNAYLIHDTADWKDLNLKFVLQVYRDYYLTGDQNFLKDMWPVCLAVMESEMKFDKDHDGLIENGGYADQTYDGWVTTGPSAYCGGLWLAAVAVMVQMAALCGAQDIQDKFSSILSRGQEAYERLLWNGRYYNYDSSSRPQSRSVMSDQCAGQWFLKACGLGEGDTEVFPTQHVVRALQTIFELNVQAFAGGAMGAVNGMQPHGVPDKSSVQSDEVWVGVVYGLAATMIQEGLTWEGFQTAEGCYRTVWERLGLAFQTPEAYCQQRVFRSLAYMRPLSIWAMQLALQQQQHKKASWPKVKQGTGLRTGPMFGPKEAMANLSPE

GBA3 = target: T2, GBA3 (Homo sapiens, UniProt Q9H227); assay: In vitro kinetic assay with GBA3; format: biochemical; conditions: GBA enzymes at 50 nM
T2 construct: purchased R&D Systems
T2 sequence (Q9H227 1-469): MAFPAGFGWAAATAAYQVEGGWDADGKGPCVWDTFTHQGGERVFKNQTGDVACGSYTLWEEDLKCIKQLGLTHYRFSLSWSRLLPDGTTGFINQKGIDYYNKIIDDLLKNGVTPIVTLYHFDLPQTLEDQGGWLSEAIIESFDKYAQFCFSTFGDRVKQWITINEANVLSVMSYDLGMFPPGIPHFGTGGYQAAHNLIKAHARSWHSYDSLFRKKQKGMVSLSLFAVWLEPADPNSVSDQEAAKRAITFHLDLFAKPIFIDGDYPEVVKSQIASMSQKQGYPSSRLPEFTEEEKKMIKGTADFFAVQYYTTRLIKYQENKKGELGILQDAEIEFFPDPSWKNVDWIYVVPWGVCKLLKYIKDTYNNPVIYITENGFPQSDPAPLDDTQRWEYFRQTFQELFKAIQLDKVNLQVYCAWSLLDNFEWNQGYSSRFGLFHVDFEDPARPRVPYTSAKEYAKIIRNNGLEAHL
Description: (§1) For some experiments, fluorescence kinetic assays were performed using a Varian Cary Eclipse Spectrophotometer set for 335/493 nm excitation/emission wavelengths. Slits were set at 10 nm and the detector was set on Medium voltage. Enzymatic reactions with human OGA were carried out in PBS at 37° C. and were started by addition of hOGA (WT, Full-length, expressed in E. coli. as previously described) in a total volume of 160 μL (Starna sub-micro Fluorometer cuvette). For measurements of rates using different concentrations of substrates, a hOGA concentration of 100 nM was used. For hOGA titration, 25 μM of Glyco-BABS were added to various concentration of hOGA. […] EDANS standard curve was established using endpoint fluorescence measurements of serial dilutions of EDANS in the relevant buffer using the same instrument parameters. Inner-Filter effect measurements were carried out in cuvette by measuring fluorescence of several concentrations of EDANS in presence of various concentrations of GlcNAc-BABS. Kinetics with Glc-BABS and GBA enzymes (GBA1 and GBA3 purchased from R&D Systems), kinetics with GALC (R&D systems) and Gal-BABS, pH stability, quenching efficiency, some inner-filter effect experiments and lysates experiments were carried out using a Molecular Devices SpectraMax i3× plate reader. […]

[1] = pH stability of Glyco-BABS; format: physicochemical; conditions: 5 μM, up to 72 h, pH 2 to 10
GBA1 = target: T3, GBA1 (Homo sapiens, UniProt P04062); assay: In vitro kinetic assay with GBA1; format: biochemical; design: purchased R&D Systems; conditions: GBA enzymes at 50 nM
T3 sequence (P04062 40-536): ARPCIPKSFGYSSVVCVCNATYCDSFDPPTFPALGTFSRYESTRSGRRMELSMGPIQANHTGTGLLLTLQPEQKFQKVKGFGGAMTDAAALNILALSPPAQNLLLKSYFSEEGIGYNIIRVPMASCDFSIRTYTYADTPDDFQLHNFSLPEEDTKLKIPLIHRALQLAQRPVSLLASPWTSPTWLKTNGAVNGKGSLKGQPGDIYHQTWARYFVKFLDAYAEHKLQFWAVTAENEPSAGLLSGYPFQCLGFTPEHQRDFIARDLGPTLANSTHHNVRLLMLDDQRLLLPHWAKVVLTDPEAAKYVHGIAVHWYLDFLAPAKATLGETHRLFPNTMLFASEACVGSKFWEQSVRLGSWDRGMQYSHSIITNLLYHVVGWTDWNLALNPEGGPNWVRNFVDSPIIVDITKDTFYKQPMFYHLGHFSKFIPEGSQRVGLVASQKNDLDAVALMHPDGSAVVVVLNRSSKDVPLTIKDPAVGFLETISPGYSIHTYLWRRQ
Description: as §1

With `CN(C)c1ccc(/N=N/c2ccc(C(=O)NCc3cn(CCOCCO[C@H](O[C@@H]4O[C@H](CO)[C@@H](O)[C@H](O)[C@H]4O)[C@@](C)(O)C(=O)NCCNc4cccc5c(S(=O)(=O)O)cccc45)nn3)cc2)cc1` [Compound 6, 5-((2-((2R,3R)-3-(2-(2-(4-((4-((E)-(4-(dimethylamino)phenyl)diazenyl)benzamido)methyl)-1H-1,2,3-triazol-1-yl)ethoxy)ethoxy)-2-hydroxy-2-methyl-3-(((2S,3R,4S,5S,6R)-3,4,5-trihydroxy-6-(hydroxymethyl)tetrahydro-2H-pyran-2-yl)oxy)propanamido)ethyl)amino)naphthalene-1-sulfonic Acid] the “turnover by GBA2” value (GBA2) was “not turned over”, the “turnover by GBA3” value (GBA3) was “not turned over” and the “pH stability (increase of fluorescence)” value [1] was “no significant increase of fluorescence”. The “turnover by GBA1” value (GBA1) was “not turned over”.
